Measurements reported in patent publication US10117873B2, “6-amino-purin-8-one compounds” (GlaxoSmithKline LLC, priority 2008, dated 2018).

Key:
Interferon-α [1] = experiment: Induction of Interferon-α using cryopreserved human PBMCs; format: cell-based; settings: PBMC, 24 h incubation, normalized to 1 uM resiquimod, read-out: mean pEC50 for induction of Interferon-α (converted)
Procedure: Assay for the Induction of Interferon-α Using Cryopreserved Human Peripheral Blood Mononuclear Cells (PBMCs)
Compounds were dissolved in DMSO. Serial 2-fold dilutions with DMSO were prepared and 0.25 μl dispensed into 384-well clear Greiner polypropylene plates.
Blood samples of up to 200 ml were obtained from healthy human donors. Whole blood in 25 ml volumes was overlaid onto 15 ml Ficoll® gradients in Leucosep® tubes, and centrifuged at 1000 g for 20 min. Cells in the band at the plasma/Histopaque® interface were carefully removed and washed twice with PBS (centrifuged at 400 g for 5 min to harvest). The final pellet was resuspended in freezing medium (90% Heat-inactivated serum, 10% DMSO) to a cell concentration of 4×10^7 cells/ml. The resuspended cells were then cryopreserved (frozen) using a rate controlled freezer, and stored at −140° C. for up to 4 months.
Immediately prior to assay, vials of cryopreserved (frozen) PBMCs were thawed rapidly in a water bath at 37° C. A 1:10 dilution of the cells in trypan blue was prepared and counted. The PBMCs were then diluted in growth media [RPMI 1640 containing 10% fetal calf serum (invitrogen), Penicillin+[…] (Gibco cat. #25030-024, 1:50), L-Glutamine 2 mM, and 1000 units/ml recombinant human IFN-gamma (Preprotech catalogue #300-02)] to a density of 1×10^6 cells/ml, and 50 ul/well dispensed to 384-well clear Greiner polypropylene plates containing 0.25 μl DMSO or test compound in 0.25 μl DMSO. […] Plates were incubated for 24 h at 37° C. in 5% CO2.
A multi-isoform immunoassay was used to quantify IFN-α in PBMC supernatants. Rabbit polyclonal antibody against human IFN-α (catalogue number 31101, Stratech Scientific) was diluted 1:10000 in assay buffer (RPMI 1640 containing 10% fetal calf serum, Invitrogen) and 20 μl was added to each well of an MSD® (Meso-Scale® Discovery) single small-spot 384-well GAR (goat anti-rabbit antibody coated) plate.
The plate was incubated for 1 h at room temperature with vigorous shaking. Following three washes with PBS, 20 μl of cell supernatant were added to each well of the plate. The plate was then incubated for 1 h at room temperature with vigorous shaking. A pair of monoclonal antibodies to IFN-α (catalogue numbers 21100 and 21112, Stratech Scientific) were labelled with sulfo-TAG (MSD®), diluted 1:1000 in assay buffer and 20 μl added to each well of the plate. The plate was further incubated for 1 h at room temperature with vigorous shaking. Following three washes with PBS, 30 μl of ×2 T buffer (MSD®) was added to each well and the plate was read on an MSD® Sector 6000 plate reader.
Data were normalized to internal plate controls of 1 uM resiquimod (n=16) and DMSO (n=16). pEC50 values were derived by 4-parameter curve fit with IRLS in ActivityBase, from 11-point, two-fold serial dilution of test compounds.

IFN-α = experiment: Induction of Interferon-α using fresh human PBMCs; format: cell-based; settings: PBMC, 24 hr incubation, relative to 2 μM resiquimod control, read-out: mean pEC50 for induction of IFN-α (converted)
Procedure: (§1) Assay for the Induction of Interferon-α and TNF-α Using Fresh Human Peripheral Blood Mononuclear Cells (PBMCs)
(§2) Compounds were dissolved and serially diluted in DMSO to give 100× the required concentration range using a Biomek® 2000. 1 ul of test compound was transferred into 96-well tissue culture plates using a Biomek® FX. Each compound was assayed in duplicate for each donor. Each plate contained a dilution series of the TLR7/8 agonist resiquimod as standard and Column 11 contained 1 μl of 200 μM resiquimod (giving a 2 μM final concentration, used to define the approximate maximal response to resiquimod).
(§3) Blood samples from two human donors were collected into sodium heparin (10 U/ml). 25 ml volumes of whole blood were overlaid onto 15 mls Histopaque® in LEUCOSEP™ tubes which were centrifuged at 800 g for 20 min and the band at the plasma/histopaque interface carefully removed. The collected cells were centrifuged at 2500 rpm for 10 min and the pellet resuspended in 10 ml of media (RPMI 1640 (Low endotoxin) supplemented with 10% v/v foetal calf serum (FCS, low endotoxin) 100 U/ml penicillin G, 100 μg/ml streptomycin, 10 mM L-glutamine and 1× non-essential amino acids). A 1:20 dilution of the cells was prepared using trypan blue & the cells counted using a haemocytometer. The PBMCs were diluted to give a final concentration of 2×10^6/ml and 100 ul of this cells suspension was added to wells containing 1 μl of diluted test compound.
(§4) The cell preparations were incubated for 24 hr (37° C., 95% air, 5% CO2) after which a sample of the supernatant was removed using the Biomek® FX and assayed for both IFN-α and TNF-α using the MSD® (Mesoscale Discovery) electrochemiluminescence assay platform. The IFN-α assay was carried out similarly to that described above. The TNF-α assay was carried out as per kit instructions (Cat No K111BHB).
(§5) Cytokine released was expressed as a percentage of the 2 μM resiquimod control (column 11). This percentage was plotted against compound concentration and the pEC50 for the response determined by non-linear least squares curve fitting. For the IFN-α responses generally a 4 parameter logistic model was selected. For the TNF responses where a clear maximum response was obtained (i.e. a well defined plateau in the response was observed) then a 4 parameter model was generally used. If the upper asymptote of the curve wasn't well defined then the curve fitting was generally constrained to a maximal response of 100% (i.e. to the response to 2 μM resiquimod) or to the response of the highest concentration tested if this was greater than the resiquimod response. Some curves were bell shaped for one or both cytokines and the cytokine data on the down slope of the bell shaped response (i.e. concentrations above those giving the maximal response) were generally excluded from the fit, usually with the exception of the concentration immediately above the peak response. Curve fitting thus concentrated on the up slope of the dose response curve.

TNF-α = experiment: Induction of TNF-α using fresh human PBMCs; format: cell-based; settings: PBMC, 24 hr incubation, relative to 2 μM resiquimod control, read-out: mean pEC50 for induction of TNF-α (converted)
Procedure: as §1, §2, §3, §4, §5

IL-5 = experiment: Allergen-driven cytokine assay using fresh human PBMCs from atopic volunteers (IL-5); format: cell-based; settings: at 0.04 μM, compared to the allergen control; PBMCs from three allergic donors, Timothy Grass antigen
Procedure: (§6) Allergen-Driven Cytokine Assay Using Fresh Human Peripheral Blood Mononuclear Cells (PBMCs) from Atopic Volunteers
(§7) An assay based on co-culture of atopic human donor derived peripheral blood mononuclear cells (PBMCs) with allergen and test compounds was developed. After 5-6 days culture, cell supernatants were assayed for a range of cytokines.
(§8) Each compound was assayed in triplicate at all concentrations.
(§9) Defibrinated human blood from volunteers known to be allergic to Timothy grass was centrifuged at 2500 rpm for 15 minutes. The upper layer of serum was collected and heat-inactivated at 56° C. for 30 minutes (HI-autologous serum). The lower layer of cells was resuspended in 50 ml PBS (+Ca+Mg), 25 ml diluted blood were overlaid onto 20 ml Lymphoprep in 50 ml tubes then centrifuged at 2500 rpm for 20 minutes at RT. The band at the serum/Lymphoprep interface was carefully removed. The collected cells were washed with PBS and re-suspended at 4×10^6/ml in growth medium with HI-autologous serum. PBMCs were seeded at 0.4×10^6 cells/well in flat-bottomed 96 well plates in the presence of 10 ug/ml Timothy Grass antigen (Alk Abello) and test compounds at appropriate concentrations in a total volume of 200 ul.
(§10) Plates were incubated at 37° C. in 5% CO2 for up to 6 days. The cell medium from each well was harvested and stored at −20° C. prior to analysis.

IL-13 = experiment: Allergen-driven cytokine assay using fresh human PBMCs from atopic volunteers (IL-13); format: cell-based; settings: at 0.04 μM, compared to the allergen control; PBMCs from three allergic donors, Timothy Grass antigen
Procedure: as §6, §7, §8, §9, §10

Interferon-α [2] = experiment: Induction of Interferon-α following intranasal dosing in the mouse; format: in vivo; settings: female BALB/c mice, serum 2 hours after dosing, ELISA
Procedure: Assay for the Induction of Interferon-α Following Intranasal Dosing in the Mouse.
Compounds were dissolved in 0.2% Tween™ 80 in saline and administered intranasally (5 μl in total between the nostrils) to female BALB/c mice (n=6) under general anaesthesia. Animals were euthanased 2 hours after dosing and a terminal blood sample was taken and serum levels of Interferon-α measured using an ELISA assay.

EC50 (IFN-α) [nM] | EC50 (TNF-α) [nM] | Structure (SMILES) | EC50 (Interferon-α [1]) [nM] | reduction of production of Th2 cytokine IL-5 (IL-5) [%] | reduction of production of Th2 cytokine IL-13 (IL-13) [%] | mean serum levels of Interferon-α (Interferon-α [2]) [pg/mL]
≤ 1 | ≥ 316 | CCC[C@H](C)Oc1nc(N)c2[nH]c(=O)n(CCCCCN3CCCCC3)c2n1 [Example 22, 6-Amino-2-{[(1S)-1-methylbutyl]oxy}-9-[5-(1-piperidinyl)pentyl]-7,9-dihydro-8H-purin-8-one] | < 3160 | ≥ 50 | ≥ 50 | 21029
≤ 1 | ≥ 316 | CCCCOc1nc(N)c2[nH]c(=O)n(CCCCCCN3CCCCCC3)c2n1 [Example 15, 6-Amino-2-(butyloxy)-9-[6-(hexahydro-1H-azepin-1-yl)hexyl]-7,9-dihydro-8H-purin-8-one] | < 3160 |  |  | 
≤ 1 | ≥ 316 | CCC[C@H](C)Oc1nc(N)c2[nH]c(=O)n(CCCCCN3CCCCCC3)c2n1 [Example 23, 6-Amino-9-[5-(hexahydro-1H-azepin-1-yl)pentyl]-2-{[(1S)-1-methylbutyl]oxy}-7,9-dihydro-8H-purin-8-one] | < 3160 |  |  | 
≤ 10 | > 1000 | CCCCOc1nc(N)c2[nH]c(=O)n(CCCCCN3CCCCCCC3)c2n1 [Example 12, 6-Amino-2-(butyloxy)-9-[5-(hexahydro-1(2H)-azocinyl)pentyl]-7,9-dihydro-8H-purin-8-one] | < 3160 |  |  | 
≤ 1 | ≥ 316 | CCC[C@H](C)Oc1nc(N)c2[nH]c(=O)n(CCCCN3CCCCCC3)c2n1 [Example 21, 6-Amino-9-[4-(hexahydro-1H-azepin-1-yl)butyl]-2-{[(1S)-1-methylbutyl]oxy}-7,9-dihydro-8H-purin-8-one] | < 3160 |  |  | 20326
≤ 10 | > 1000 | CCCCNc1nc(N)c2[nH]c(=O)n(CCCCN3CCCCCC3)c2n1 [Example 18, 6-Amino-2-(butylamino)-9-[4-(hexahydro-1H-azepin-1-yl)butyl]-7,9-dihydro-8H-purin-8-one] | < 3160 |  |  | 
≤ 1 | ≥ 316 | CCCCOc1nc(N)c2[nH]c(=O)n(CCCCCCN3CCCC3)c2n1 [Example 13, 6-Amino-2-(butyloxy)-9-[6-(1-pyrrolidinyl)hexyl]-7,9-dihydro-8H-purin-8-one] | < 3160 |  |  | 
≤ 10 | > 1000 | CCCCOc1nc(N)c2[nH]c(=O)n(CCCCN3CCCCC3)c2n1 [Example 6, 6-Amino-2-(butyloxy)-9-[4-(1-piperidinyl)butyl]-7,9-dihydro-8H-purin-8-one] | < 3160 |  |  | 
≤ 10 | > 1000 | CCCCOc1nc(N)c2[nH]c(=O)n(CCCCCN3CCCCCC3)c2n1 [Example 11, 6-Amino-2-(butyloxy)-9-[5-(hexahydro-1H-azepin-1-yl)pentyl]-7,9-dihydro-8H-purin-8-one] | < 3160 |  |  | 
